BindingDB's records for doi:10.1021/jm801507v (AstraZeneca, 2009)

Legend:
[1] = molecular target: T1, Diacylglycerol O-acyltransferase 1 (Homo sapiens, UniProt O75907); experiment: DGAT Enzyme Inhibition Assay; conditions: pH 7.4; 22 °C
T1 sequence (O75907 whole entry): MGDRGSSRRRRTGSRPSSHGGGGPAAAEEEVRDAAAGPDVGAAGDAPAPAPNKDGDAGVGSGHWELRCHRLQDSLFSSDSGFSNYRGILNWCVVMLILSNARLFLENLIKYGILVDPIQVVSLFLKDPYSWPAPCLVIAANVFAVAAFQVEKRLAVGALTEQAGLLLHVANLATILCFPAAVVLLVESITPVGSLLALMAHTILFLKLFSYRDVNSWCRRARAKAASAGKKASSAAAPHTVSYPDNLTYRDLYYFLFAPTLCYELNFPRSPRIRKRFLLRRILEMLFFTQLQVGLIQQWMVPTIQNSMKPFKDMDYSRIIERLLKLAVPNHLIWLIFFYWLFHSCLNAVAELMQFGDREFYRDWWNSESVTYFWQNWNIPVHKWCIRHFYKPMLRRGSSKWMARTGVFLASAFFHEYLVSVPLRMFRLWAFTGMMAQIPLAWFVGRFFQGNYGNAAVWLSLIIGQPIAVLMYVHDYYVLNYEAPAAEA
Experimental: The assay mixture contains test compound, membrane protein, and 1,2 dioleoyl-sn-glycerol in a 96-deep well plate. The reaction was started by adding substrate [14C]oleoyl coenzyme A and incubated. After the reaction was stopped, radioactive triolein product was separated into the organic heptane phase. DGAT activity was quantified by counting aliquots of the upper heptane layer by liquid scintillography.

[2] = molecular target: T2, Sterol O-acyltransferase 1 (Homo sapiens, UniProt P35610); experiment: ACAT-1 Enzyme Inhibition Assay; conditions: pH 7.4; 37 °C
T2 sequence (P35610 whole entry): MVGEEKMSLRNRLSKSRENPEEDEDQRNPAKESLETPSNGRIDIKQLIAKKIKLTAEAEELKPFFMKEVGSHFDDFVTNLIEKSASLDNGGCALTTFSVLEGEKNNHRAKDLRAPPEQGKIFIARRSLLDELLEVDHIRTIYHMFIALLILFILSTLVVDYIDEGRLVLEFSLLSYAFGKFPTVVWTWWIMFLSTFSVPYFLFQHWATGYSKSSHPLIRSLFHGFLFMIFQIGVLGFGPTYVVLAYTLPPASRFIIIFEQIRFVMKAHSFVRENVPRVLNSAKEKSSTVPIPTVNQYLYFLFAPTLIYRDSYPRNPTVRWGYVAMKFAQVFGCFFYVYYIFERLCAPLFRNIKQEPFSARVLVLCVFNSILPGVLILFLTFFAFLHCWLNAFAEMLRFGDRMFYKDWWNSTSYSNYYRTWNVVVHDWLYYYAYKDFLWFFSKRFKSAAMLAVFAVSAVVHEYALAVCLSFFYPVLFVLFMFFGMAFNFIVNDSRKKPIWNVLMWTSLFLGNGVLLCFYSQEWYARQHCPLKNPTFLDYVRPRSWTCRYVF
Experimental: The reaction was started by adding substrate [14C]oleoyl coenzyme A and incubated. After the reaction was stopped, radioactive cholesteryl oleate product was separated into the organic heptane phase. ACAT-1 activity was quantified by counting aliquots of the upper heptane layer by liquid scintillography.

- IC50 [1]: 0.069 µM
- IC50 [2]: 28 µM
Structure (SMILES): CC1(C)Oc2ncnc(N)c2N=C1c1ccc(C23CCCC(CC(=O)O)(CC2)CC3)cc1 [2-[5-(4-{4-amino-7,7-dimethyl-7H-pyrimido[4,5-b][1,4]oxazin-6-yl}phenyl)bicyclo[3.2.2]nonan-1-yl]acetic acid]
